Measured values from US10919941B2, “Functional lipid constructs” (KODE BIOTECH LIMITED, priority 2007, dated 2021).
No end group written: not given here.

Key:
Format in all cases: cell-based, human
[1] = test system: Miltenberger antibody positive sera; test: BioVue AHG card column agglutination serology of modified red blood cells; parameters: key: 0 or ‘−’ no agglutination; 0 or ‘−’ no agglutination; 1+ or 3=very weak agglutination; 1+ or 3=very weak agglutination; 2+ or 5=weak agglutination; 2+ or 5=weak agglutination; 3+ or 8=moderate strong agglutination; 3+ or 8=moderate strong agglutination; 4+ or 10/12=strong agglutination; 4+ or 10/12=strong agglutination; 4+ or 10/12=strong agglutination; details: construct 50 μg/ml
Protocol: (§1) Red blood cells are modified by mixing 1 part by volume of washed packed red blood cells with 1 part by volume of peptide-lipid construct dispersed at a concentration of 10 to 1000 pg/ml in cell media (Celpresol™).
(§2) The suspensions are either: • 1. incubated for 2 hours at 37° C. before being washed and suspended in a cell medium for serological analysis at a concentration of 0.8 to 3% (Method 1); or • 2. incubated for 3 to 4 hours at room temperature (circa 25° C.) followed by 18 hours at 4° C. before being washed and suspended in a cell medium for serological analysis at a concentration of 0.8 to 3% (Method 2).
(§3) Serological reactions are graded or scored by either of two established systems (0 or ‘−’ no agglutination, 1+ or 3=very weak agglutination, 2+ or 5=weak agglutination, 3+ or 8=moderate strong agglutination, 4+ or 10/12=strong agglutination)
(§4) Serological platforms used are Tube (addition of reagents and reactants into plastic or glass serology tubes and after appropriate incubations, washing and centrifugation observing reactions macroscopically by eye and a 10× magnification eyepiece and scoring) and BioVue™ (addition of reactants into cassettes containing beads (including some reactants) and after appropriate incubations and centrifugation observing the reaction patterns trapped within the Gel matrix). BioVue is the serological column agglutination platform of Ortho-Clinical Diagnostics. Diamed is the serological column agglutination platform of Diamed AG.

[2] = test system: Miltenberger Antibody Positive Panel; test: Reactivity of modified RBCs against the Miltenberger Antibody Positive Panel; parameters: key to score vs panel 15 TAP2 / score vs panel 4 T7202 / score vs panel 8 T5896 / score vs panel 2 T217 / score vs panel 3 T165 / score vs panel 14 TAP1 / score vs panel 10 Mia / score vs panel 11 Mur / score vs panel 12 Gam / score vs panel 6 T6025 / score vs panel 7 T8445 / score vs panel 9 MIII / score vs panel 13 BoxH / reactivity with Panel Serum #7 (T8445) / agglutination score, Panel Serum #7 (T8445): 0 or ‘−’ no agglutination; 0 or ‘−’ no agglutination; 1+ or 3=very weak agglutination; 1+ or 3=very weak agglutination; 2+ or 5=weak agglutination; 2+ or 5=weak agglutination; 3+ or 8=moderate strong agglutination; 3+ or 8=moderate strong agglutination; 4+ or 10/12=strong agglutination; 4+ or 10/12=strong agglutination; 4+ or 10/12=strong agglutination; details: for score vs panel 2 T217 / score vs panel 3 T165 / score vs panel 4 T7202 / score vs panel 8 T5896 / score vs panel 14 TAP1 / score vs panel 15 TAP2: Table 8, construct 50 μg/ml
Protocol: as §1, §2, §3, §4

[3] = test system: TAP1 serum (Taiwan Miltenberger antibody positive sample); test: Anti-MUT serum (TAP1) reactivity of modified RBCs (saline and AHG); parameters: key: 0 or ‘−’ no agglutination; 0 or ‘−’ no agglutination; 1+ or 3=very weak agglutination; 1+ or 3=very weak agglutination; 2+ or 5=weak agglutination; 2+ or 5=weak agglutination; 3+ or 8=moderate strong agglutination; 3+ or 8=moderate strong agglutination; 4+ or 10/12=strong agglutination; 4+ or 10/12=strong agglutination; 4+ or 10/12=strong agglutination; details: construct 50 μg/ml (2 hours, 37° C.)
Protocol: as §2, §3

antibody negative serums = test: False positive reactions of modified RBCs with antibody negative serums/plasma; parameters: key to Reaction score BioVue AHG, PAC samples 1-46, 49, 50, 52, 53 / Reaction score BioVue AHG, PAC sample 47 / Reaction score BioVue AHG, PAC sample 48 / Reaction score BioVue AHG, PAC sample 51 / agglutination score, T series serum 2 / agglutination score, T series serum 42 / agglutination score, T series serum 63 / agglutination score, T series serum 62 / agglutination score, T series serum 7 / agglutination score, T series serum 20 / agglutination score, T series serum 48 / agglutination score, T series serum 22 / agglutination score, T series serum 39 / agglutination score, T series serum 23 / agglutination score, T series serum 30 / agglutination score, T series serum 4 / agglutination score, T series serum 31 / agglutination score, T series serum 44 / agglutination score, T series serum 61 / agglutination score, T series serum 18 / agglutination score, T series serum 21 / agglutination score, T series serum 28 / agglutination score, T series serum 55 / agglutination score, false positive serum T18 / agglutination score, false positive serum T21 / agglutination score, false positive serum T28 / agglutination score, false positive serum T55 / agglutination score, false positive serum T78 / agglutination score, false positive serum T92: 0 or ‘−’ no agglutination; 0 or ‘−’ no agglutination; 1+ or 3=very weak agglutination; 1+ or 3=very weak agglutination; 2+ or 5=weak agglutination; 2+ or 5=weak agglutination; 3+ or 8=moderate strong agglutination; 3+ or 8=moderate strong agglutination; 4+ or 10/12=strong agglutination; 4+ or 10/12=strong agglutination; 4+ or 10/12=strong agglutination
[4] = blood donor plasma, construct 50 μg/ml (2 hours, 37° C.)

## M37: DOPE peptide-lipid construct: MUTK peptide TNDKHKRDTYP, leader c, spacer CMG(2) (TNDKHKRDTYPC; also: DOPE peptide-lipid construct via leader Cys, spacer CMG(2))
[1]
  BioVue score vs TAP1: 8
  BioVue score vs positive sample 2 T217 (T): 5
  BioVue score vs positive sample 3 T165 (Mur): 0
  BioVue score vs positive sample 4 T7202 (M): 8
  BioVue score vs positive sample 8 T5896 (M + K + Mur): 0
[2]; MUT peptides, prior art sequence 1
  sensitivity and specificity towards a human polyclonal antibody panel compared with sequence 1: superior sensitivity and specificity
[2]
  score vs panel 2 T217: 5
  score vs panel 3 T165: 0
  score vs panel 4 T7202: 8
  score vs panel 8 T5896: 0
  score vs panel 14 TAP1: 8
  score vs panel 15 TAP2: 0
[3]
  Reactivity with anti-MUT serum TAP1: 8
Antibody negative serums; [4]
  Reaction score BioVue AHG, PAC sample 47: 0
  Reaction score BioVue AHG, PAC sample 48: 0
  Reaction score BioVue AHG, PAC sample 51: 0
  Reaction score BioVue AHG, PAC samples 1-46, 49, 50, 52, 53: 0
Antibody negative serums; panel of blood donor plasma samples (PAC), BioVue AHG, construct 50 μg/ml
  % False Positives: 0%

## M35: DOPE peptide-lipid construct: MUTK peptide QTNDKHKRDT, leader c, spacer CMG(2) (QTNDKHKRDTC; also: DOPE peptide-lipid construct via leader Cys, spacer CMG(2))
[1]
  BioVue score vs TAP1: 5
  BioVue score vs positive sample 2 T217 (T): 0
  BioVue score vs positive sample 3 T165 (Mur): 0
  BioVue score vs positive sample 4 T7202 (M): 0
  BioVue score vs positive sample 8 T5896 (M + K + Mur): 0
[2]
  score vs panel 2 T217: 0
  score vs panel 3 T165: 0
  score vs panel 4 T7202: 0
  score vs panel 8 T5896: 0
  score vs panel 14 TAP1: 5
  score vs panel 15 TAP2: 0
[3]
  Reactivity with anti-MUT serum TAP1: 5
